Experiment [1] concerns the target T1, C5aR (Homo sapiens (Human), UniProt P21730). Briefly: Inhibition of C5a-C5aR binding determined by cell migration assay (U937/C5aR cells). The note with it: U937/C5aR cell migration towards human C5a, 180 min. It is filed as cell-based. The gist of the method:
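Transwell migration through 3.0 µm pores: U937/C5aR cells in HBSS + 1% FBS were premixed with compound, with human C5a plus compound in the bottom well. After 30 min preincubation, cells migrated 180 min at 37 °C. Migrated cells were quantified by CellTiter-Glo luminescence.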

Experiment [2] deals with human C5a (hC5a) induced neutropenia. As to the kind of experiment: C5a induced neutropenia in a cynomolgus model. Format: in vivo. Conditions: cynomolgus monkey, pre-dosed 4 hours before hC5a, compared to vehicle. The method, then: To study the efficacy of compounds in a non-human primate model, human C5a (hC5a) induced neutropenia is studied in a cynomolgus model. Intravenous injection of hC5a induced upregulation of adhesion molecules on blood vessel walls, leading to decreased neutrophils in the blood stream and attached to the vascular walls. Monkeys were pre-dosed with vehicle or specific compound, and 4 hours later, hC5a ([…], ACROBiosystems) was administrated and 1 minute later neutrophils are quantified in peripheral blood.
The percent change in the number of neutrophils in the blood collected after C5a injection (241 min) was calculated relative to the sample collected prior to C5a injection (239 min). The plasma concentration of each compound was calculated as the average concentration prior to C5a injection of 2 individual monkeys.

The subject of experiment [3] is C5a induced CD11b upregulation on neutrophil. As to the kind of experiment: Neutrophil CD11b FACS assay, human C5aR knock-in mice whole blood after oral pre-dosing. It is filed as in vivo. The note with it: oral pre-dosing 0.3 mg/kg and 3 mg/kg. The method, then: (§1) Peripheral blood samples were collected from Cynomolgus monkey/huC5aR knock-in mice at indicated timepoints. 100 μl aliquots were mixed with a range of C5a concentrations and incubated at 37° C. for 30 min. Blood was cooled down on wet ice for at least 3 min, anti-CD11b monoclonal antibody (BD Biosciences) was added and incubated at 4° C. for 60 min. Red blood cells were lysed by adding erythrocyte lysis buffer (Solarbio) and incubated on ice for 10 min, white blood cells were washed by pre-cold PBS twice and suspended by 2% PFA/PBS buffer. Neutrophils were classified with flow cytometry by their forward/side-scatter properties and mean fluorescence intensity of anti-CD11b staining on cells was read by FACS (Beckman).
Whole blood was collected at indicated timepoints (2 hours or 12 hours after dosing compound) and further stimulated with human C5a in vitro. CD11b FACS antibody was added and incubate for 60 min at 4 C before red blood cells were lysed. The percent of CD11b signal was calculated by the formula %=(MFI[C5a conc.]-MFI[C5a=0])/(MFI[max]-MFI[C5a=0])×100%. Each data point was the average SD of 3 individual mice.
Whole blood was collected at 2 hrs after dosing compound and further stimulated with human C5a in vitro. CD11b FACS antibody was added and incubate for 60 min at 4 C before red blood cells were lysed. The percent of CD11b signal was calculated by the formula %=(MFI[C5a conc.]-MFI[C5a=0])/(MFI[max]-MFI[C5a=0])×100%. Each data point was the average of 2 individual mice.
Whole blood was collected at 2 hrs after dosing compound and further stimulated with human C5a in vitro. CD11b FACS antibody was added and incubate for 60 min at 4 C before red blood cells were lysed. The percent of CD11b signal was calculated by the formula %=(MFI[C5a conc.]-MFI[C5a=0])/(MFI[max]-MFI[C5a=0])×100%. Each data point was the average±SD of 2 individual mice.

In experiment [4] the target is human C5a receptor (C5aR) (Homo sapiens (Human), UniProt P21730). Briefly: Inhibition of C5a-C5aR binding (biotinylated human C5a, U937/C5aR cells, FACS). Summed up:
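U937 cells stably expressing human C5aR, 3×10^6 cells/ml in PBS+0.1% BSA, were co-incubated with compound and biotinylated human C5a (30 nM, working solution) on ice for 120 min. Bound ligand was stained with FITC-streptavidin for 30 min on ice and read by flow cytometry.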

Experiment [5] deals with C5a induced CD11b upregulation on granulocytes. As to the kind of experiment: Neutrophil CD11b FACS assay, cyno monkey whole blood after oral pre-dosing. Format: in vivo. The note with it: oral pre-dosing at 10 mg/kg; for EC50 at 10 mg/kg: Macaca fascicularis, Neutrophil, read-out: EC50 (C5a induced CD11b upregulation on granulocytes ex-vivo). The protocol: as §1
The percent of CD11b signal was calculated by the formula %=(MFI[C5a conc.]-MFI[C5a=0])/(MFI[max]-MFI[C5a=0])×100%. Each data point was the average of 2 individual monkeys. The plasma concentration of each compound is the average concentration prior to C5a injection of 2 individual monkeys.

The target of experiment [6] is T1, C5aR. As to the kind of experiment: Calcium mobilization (U937/C5aR or HEK293/C5aR cells, FLIPR). Conditions: agonist human C5a at EC80, FLIPR. Format: cell-based. The gist of the method: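 U937 or HEK293 cells expressing human C5aR, plated overnight, then preincubated 60 min with compound. After Fluo-4 Direct dye loading (50 min at 37 °C, 10 min at room temperature), intracellular calcium rise on FLIPR was triggered by human C5a agonist at EC80.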

Experiment [7] concerns human C5a induced neutropenia. Briefly: C5a induced neutropenia in human C5aR knock-in mice model. It is filed as in vivo. The note with it: 0.3 mg/kg and 3 mg/kg, pre-dosed 2 hours before hC5a. The method, then:
To study the efficacy of compounds in an animal model, human C5aR knock-in mice were created by replacing the coding region of mouse C5aR with human C5aR coding sequence. Intravenous injection of hC5a induced upregulation of adhesion molecules on blood vessel walls, leading to decreased neutrophils in the blood stream and attached to the vascular walls. Human C5aR knock-in mice were pre-dosed with vehicle or specific compound, and 2 hours later, human C5a ([…], ACROBiosystems) was administrated and 1 minute later neutrophils are quantified in peripheral blood.
The percent change in the number of neutrophils in the blood collected after C5a injection (121 min), relative to the sample collected prior to C5a injection (119 min). The plasma concentration of each compound is the average concentration prior to C5a injection of 3 individual mice.

T1 sequence (P21730 whole entry): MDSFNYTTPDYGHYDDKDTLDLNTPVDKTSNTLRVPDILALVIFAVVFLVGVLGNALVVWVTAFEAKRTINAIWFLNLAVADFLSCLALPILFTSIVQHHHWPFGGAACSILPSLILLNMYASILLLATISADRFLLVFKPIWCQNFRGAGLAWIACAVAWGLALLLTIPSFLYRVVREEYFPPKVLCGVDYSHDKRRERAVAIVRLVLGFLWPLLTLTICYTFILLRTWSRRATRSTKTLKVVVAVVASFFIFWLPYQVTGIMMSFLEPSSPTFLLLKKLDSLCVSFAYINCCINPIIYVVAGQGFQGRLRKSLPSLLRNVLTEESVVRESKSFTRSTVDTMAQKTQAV
Sequence of human C5a receptor (C5aR) (P21730 whole entry): as above

On to `Cc1ccc(NC(=O)[C@H]2C[C@H]3CCC[C@H]3N(C(=O)c3c(C)cccc3F)[C@H]2c2ccc(NC3CCCC3)cc2)cc1C(F)(F)F` [Compound 47, (2R,3S,4aR,7aR)-2-(4-(cyclopentylamino)phenyl)-1-(2-fluoro-6-methylbenzoyl)-N-(4-methyl-3-(trifluoromethyl)phenyl)octahydro-1H-cyclopenta[b]pyridine-3-carboxamide], for which the 50% inhibitory concentration (IC50) in experiment [1] was less than 50 nM; in experiment [4], 50 to 500 nM; in experiment [6] it was less than 50 nM. For the same molecule, in experiment [2], the “rescue of neutropenia induced by human C5a” value is “effectively rescued the neutropenia”. Also, the “CD11b upregulation on neutrophil” value in experiment [3] (2 hours after dosing) was “blocked”. Also, the EC50 at 10 mg/kg in experiment [5] turned out to be 276 nM. Besides, the “C5a induced CD11b upregulation on granulocytes ex-vivo” value in experiment [5] was “blocked”.
For `Cc1cccc(F)c1C(=O)N1[C@@H]2CCC[C@@H]2C[C@H](C(=O)Nc2ccc3c(cnn3C)c2)[C@@H]1c1ccc(NC2CCCC2)cc1` [Compound 49, (2R,3S,4aR,7aR)-2-(4-(cyclopentylamino)phenyl)-1-(2-fluoro-6-methylbenzoyl)-N-(1-methyl-1H-indazol-5-yl)octahydro-1H-cyclopenta[b]pyridine-3-carboxamide], the results for the IC50 in experiment [1], in experiment [4] and in experiment [6] were less than 50 nM, less than 50 nM and 500 to 2000 nM, respectively. Further, the “rescue of neutropenia induced by human C5a” value in experiment [2] and in experiment [7] was “effectively rescued the neutropenia” throughout. In addition, the “CD11b upregulation on neutrophil” value in experiment [3] (2 hours after dosing) is “blocked”; in experiment [3] (2 hours and 12 hours post-dosing), “blocked”. In experiment [5], the concentration for a half-maximal effect (EC50) at 10 mg/kg was 256 nM. Moreover, the “C5a induced CD11b upregulation on granulocytes ex-vivo” value in experiment [5] is recorded as “blocked”.
Turning to `Cc1cccc(F)c1C(=O)N1[C@@H]2CCC[C@@H]2C[C@H](C(=O)Nc2ccc3c(cnn3C)c2)[C@@H]1c1ccc(NC2CCOCC2)cc1` [Compound 89, (2R,3S,4aR,7aR)-1-(2-fluoro-6-methylbenzoyl)-N-(1-methyl-1H-indazol-5-yl)-2-(4-((tetrahydro-2H-pyran-4-yl)amino)phenyl)octahydro-1H-cyclopenta[b]pyridine-3-carboxamide], the IC50 in experiment [1] was less than 50 nM; in experiment [4] it was less than 50 nM; in experiment [6] it was 500 to 2000 nM. Besides, in experiment [3] (2 hours after dosing), the “CD11b upregulation on neutrophil” value is listed as “blocked”.

The values are drawn from patent US20240043439A1, “COMPOUNDS AS C5AR INHIBITORS” (Kira Pharmaceuticals (Suzhou) Ltd., priority 2020, published 2024).
